Consider 39 compounds from patent publication US20170253607A1, “LONG-ACTING HIV PROTEASE INHIBITOR” (Shionogi & Co., Ltd., priority 2014, published 2017).

For this test, the target named is HIV-1 PR (Human immunodeficiency virus type 1 group M subtype B, UniProt P04585). Put plainly: HIV-protease inhibitory activity assay (FRET peptide substrate). It counts as biochemical. To be noted: Test Example 1. The protocol: Test Example 1: HIV-Protease Inhibitory Activity Assay
The HIV-1 PR assay was performed by using a FRET (Fluorescence Resonance Energy Transfer) peptide substrate (AnaSpec, Inc., Fremont, Calif.). Initially in the intact FRET peptide, the fluorescence of HiLyte Fluor 488 is quenched by QXL 520. Upon substrate cleavage by PR, the fluorescence is recovered and can be monitored. Test compounds diluted in DMSO was plated to the wells of 384-well plate. Then, mixed with assay buffer (0.1 mol/L NaAc containing 0.5 mol/L NaCl, 1 mmol/L EDTA, 1 mmol/L DTT, and 0.05% Tween 20, pH 4.8) in the presence or absence of HIV-1 PR (0.83 ng), and let it stand for 5 minutes at room temperature. Background fluorescence intensity was measured and let it stand for another 15 minutes at room temperature. The enzyme reaction was started by adding substrate diluted in assay buffer at final concentration of 2 μmol/L, and let it stand for 60 minutes at room temperature. After 60 minutes, the fluorescence intensity was measured. Fluorescence intensity was measured with excitation and emission wavelengths of 485 nm and 535 nm, respectively.
IC50 values were determined using non-linear regression four-parameter logistic equation, y=A+((B−A)/(1+((C/x)̂D))) where A=minimum inhibition, B=maximum inhibition, C=log IC50, D=slope factor, x=concentration of compound and y=% inhibition.
In turn, `COc1ccc(S(=O)(=O)N(CC(C)C)CC(O)C(Cc2ccc(NC3c4ccccc4C(=O)N3c3sc4c(c3C(=O)O)CC(C)(C)CC4)cc2)NC(=O)OC2COC3(C)OCCC23)cc1` (stereo not drawn) [Compound I-536] came in with a half-maximal inhibitory concentration (IC50) of 2.1 nM.

`COc1ccc(S(=O)(=O)N(CC(C)C)CC(O)C(Cc2ccc(NCc3ccccc3-c3ccc4cc(C(=O)O)[nH]c4c3)cc2)NC(=O)OC2COC3(C)OCCC23)cc1` (stereo not drawn) [Compound I-503] yielded a concentration for half-maximal inhibition (IC50) of 1.68 nM. The IC50 values of the last two compounds are within 1.5-fold of each other.

As for `COc1ccc(S(=O)(=O)N(CC(C)C)CC(O)C(Cc2ccc(N(C)CC3CCCCC3C(=O)Nc3sc4c(c3C(=O)O)CC(C)(C)CC4)cc2)NC(=O)OC2COC3(C)OCCC23)cc1` (stereo not drawn) [Compound I-622], the midpoint of inhibition, the IC50, lay at 3.71 nM.

`COc1ccc(S(=O)(=O)N(CC2CC2)CC(O)C(Cc2ccc(NCc3ccccc3-c3sc4c(c3C(=O)O)CC(C)(C)CC4)cc2)NC(=O)OC2COC3(C)OCCC23)cc1` (stereo not drawn) [Compound I-472] returned an IC50 of 2.27 nM.

`COc1ccc(S(=O)(=O)N(CC(C)C)CC(O)C(Cc2ccc(OCc3ccccc3-c3sc4c(c3C(=O)O)CC(C)(C)CC4)cc2)NC(=O)OC2COC3(COC(=O)NCc4ccc(F)cc4)OCCC23)cc1` (stereo not drawn) [Compound I-784]: half-maximal inhibition (IC50) required 7.3 nM.

In the case of `COc1ccc(S(=O)(=O)N(CC(C)C)CC(O)C(Cc2ccc(C(=O)NCc3ccccc3-c3sc4c(c3C(=O)O)CC(C)(C)CC4)cc2)NC(=O)OC2COC3(C)OCCC23)cc1` (stereo not drawn) [Compound I-263], half-maximal inhibition (IC50) was put at 3.41 nM.

For the compound `COc1ccc(S(=O)(=O)N(CC(C)C)CC(O)C(Cc2ccc(NCc3ccccc3-c3ccc(-c4sc5c(c4C(=O)O)CC(C)(C)CC5)nc3)cc2)NC(=O)OC2COC3(C)OCCC23)cc1` (stereo not drawn) [Compound I-713], 1.69 nM corresponded to half-maximal inhibition (IC50).

`COc1ccc(S(=O)(=O)N(CC(C)C)CC(O)C(Cc2ccc(NC(=O)c3sc4c(c3C(=O)O)CC(C)(C)CC4)cc2)NC(=O)OC2COC3(C)OCCC23)cc1` (stereo not drawn) [Compound I-208] had an IC50 of 1.86 nM.

Turning to `COc1ccc(S(=O)(=O)N(CC(C)C)CC(O)C(Cc2ccc(OCc3ccccc3-c3ccc(-n4nc5c(c4C(=O)O)CC(C)(C)CC5)cc3)cc2)NC(=O)OC2COC3(C)OCCC23)cc1` (stereo not drawn) [Compound I-301], the midpoint of inhibition, the IC50, lay at 3.14 nM.

`COc1ccc(S(=O)(=O)N(CC(C)C)CC(O)C(Cc2ccc(NCCOc3ccccc3-c3sc4c(c3C(=O)O)CC(C)(C)CC4)cc2)NC(=O)OC2COC3(C)OCCC23)cc1` (stereo not drawn) [Compound I-619] registered an IC50 of 2.48 nM. The IC50 values of the last two compounds are within 1.5-fold of each other.

`COc1ccc(S(=O)(=O)N(CC(C)C)CC(O)C(Cc2ccc(NCc3cc(C)c(-c4sc5c(c4C(=O)O)CC(C)(C)CC5)cc3C)cc2)NC(=O)OC2COC3(C)OCCC23)cc1` (stereo not drawn) [Compound I-556] came in with an IC50 of 5.45 nM.

In the case of `COc1ccc(S(=O)(=O)N(CC(C)C)CC(O)C(Cc2ccc(N3CCC(c4ccc(-c5sc6c(c5C(=O)O)CC(C)(C)CC6)cc4)C3)cc2)NC(=O)OC2COC3(C)OCCC23)cc1` (stereo not drawn) [Compound I-576], the IC50 turned out to be 4.95 nM.

The compound `COc1ccc(S(=O)(=O)N(CC(C)C)CC(O)C(Cc2ccc(N(C)c3ccc(-c4sc5c(c4C(=O)O)CC(C)(C)CC5)cc3)cc2)NC(=O)OC2COC3(C)OCCC23)cc1` (stereo not drawn) [Compound I-469] showed an IC50 of 5.16 nM.

The compound `COc1ccc(S(=O)(=O)N(CC2CCCC2)CC(O)C(Cc2ccc(NCc3cc(C(F)(F)F)ccc3-c3sc4c(c3C(=O)O)CC(C)(C)CC4)cc2)NC(=O)OC2COC3OCCC23)cc1` (stereo not drawn) [Compound I-870] showed a 50% inhibitory concentration (IC50) of 9.33 nM. Against the preceding compound, the IC50 is about 1.8-fold higher.

The compound `COc1ccc(S(=O)(=O)N(CC(C)C)CC(O)C(Cc2ccc(NCc3nc4ccccc4cc3C(=O)Nc3sc4c(c3C(=O)O)CC(C)(C)CC4)cc2)NC(=O)OC2COC3(C)OCCC23)cc1` (stereo not drawn) [Compound I-774] yielded a half-inhibitory concentration (IC50) of 6.26 nM. The IC50 values of the last two compounds are within 1.5-fold of each other.

Compound `COc1ccc(S(=O)(=O)N(CC(C)C)CC(O)C(Cc2ccc(NCc3ccccc3OCC(=O)O)cc2)NC(=O)OC2COC3(C)OCCC23)cc1` (stereo not drawn) [Compound I-315] gave a concentration for half-maximal inhibition (IC50) of 1.98 nM. This IC50 lies about 3.2-fold lower than the previous one.

Compound `COc1ccc(S(=O)(=O)N(CC(C)C)CC(O)C(Cc2ccc(N(Cc3ccccc3-c3sc4c(c3C(=O)O)CC(C)(C)CC4)CC3CCCCC3)cc2)NC(=O)OC2COC3(C)OCCC23)cc1` (stereo not drawn) [Compound I-42] yielded an IC50 of 23.4 nM.

For `COc1ccc(S(=O)(=O)N(CC(C)C)CC(O)C(Cc2ccc(N(C)Cc3sc4c(c3C(=O)O)CC(C)(C)CC4)cc2)NC(=O)OC2COC3(C)OCCC23)cc1` (stereo not drawn) [Compound I-46], it took 1.86 nM to reach half-maximal inhibition (IC50). This IC50 is about 13-fold lower than that of the compound before.

`COc1ccc(S(=O)(=O)N(CC(C)C)CC(O)C(Cc2ccc(NCc3ccccc3-c3nc4n(c3C(=O)O)CCCC4)cc2)NC(=O)OC2COC3(C)OCCC23)cc1` (stereo not drawn) [Compound I-368] had an IC50 of 2.11 nM.

For the compound `COc1ccc(S(=O)(=O)N(CC(C)C)CC(O)C(Cc2ccc(N(CCN3CCOCC3)Cc3ccccc3-c3sc4c(c3C(=O)O)CC(C)(C)CC4)cc2)NC(=O)OC2COC3(C)OCCC23)cc1` (stereo not drawn) [Compound I-429], the 50% inhibitory concentration (IC50) stood at 2.21 nM.

Compound `COc1ccc(S(=O)(=O)N(CC(C)C)CC(O)C(Cc2ccc(OCc3ccc(-c4sc5c(c4C(=O)O)CC(C)(C)CC5)c(C)c3)cc2)NC(=O)OC2COC3(C)OCCC23)cc1` (stereo not drawn) [Compound I-91] yielded a 50% inhibitory concentration (IC50) of 1.35 nM.

As to `COc1ccc(S(=O)(=O)N(CC(C)C)CC(O)C(Cc2ccc(NCc3ccc(O)cc3-c3sc4c(c3C(=O)O)CC(C)(C)CC4)cc2)NC(=O)OC2COC3(C)OCCC23)cc1` (stereo not drawn) [Compound I-548], the concentration for half-maximal inhibition (IC50) came out at 1.49 nM.

Compound `COc1ccc(S(=O)(=O)N(CC(C)C)CC(O)C(Cc2ccc(NCc3c(-c4sc5c(c4C(=O)O)CC(C)(C)CC5)ccc(F)c3F)cc2)NC(=O)OC2COC3(C)OCCC23)cc1` (stereo not drawn) [Compound I-279] gave an IC50 of 1.6 nM.

`CCCCCCCCCCCCCC(=O)Nc1ccc(CN(C)c2ccc(C[C@H](NC(=O)OC3CO[C@@]4(C)OCC[C@@H]34)[C@H](O)CN(CC(C)C)S(=O)(=O)c3ccc(OC)cc3)cc2)c(-c2sc3c(c2C(=O)O)CC(C)(C)CC3)c1` (stereo partly drawn) [Compound I-910] yielded a half-inhibitory concentration (IC50) of 7.84 nM.

In the case of `COc1ccc(S(=O)(=O)N(CC(C)C)CC(O)C(Cc2ccc(Oc3ccc(-c4sc5c(c4C(=O)O)CC(C)(C)CC5)c(OC)c3)cc2)NC(=O)OC2COC3(C)OCCC23)cc1` (stereo not drawn) [Compound I-136], half-maximal inhibition (IC50) required 1.4 nM.

Compound `COc1ccc(S(=O)(=O)N(CC(C)C)CC(O)C(Cc2ccc(OCc3ccc(-c4ccc(F)cc4F)c(C(=O)O)c3)cc2)NC(=O)OC2COC3(C)OCCC23)cc1` (stereo not drawn) [Compound I-152] had an IC50 of 1.15 nM.

Turning to `COc1ccc(S(=O)(=O)N(CC(C)C)CC(O)C(Cc2ccc(N(C)Cc3nc(N(C4CCCCC4)C4CCCCC4)sc3-c3sc4c(c3C(=O)O)CC(C)(C)CC4)cc2)NC(=O)OC2COC3(C)OCCC23)cc1` (stereo not drawn) [Compound I-761], half-maximal inhibition (IC50) required 6.76 nM.

With `CCCCCCCCCN(Cc1ccccc1-c1sc2c(c1C(=O)O)CC(C)(C)CC2)c1ccc(CC(NC(=O)OC2COC3(C)OCCC23)C(O)CN(CC(C)C)S(=O)(=O)c2ccc(OC)cc2)cc1` (stereo not drawn) [Compound I-458], the half-inhibitory concentration (IC50) came out at 51 nM.

The compound `COc1ccc(S(=O)(=O)N(CC(C)C)CC(O)C(Cc2ccc(N(Cc3ccccc3-c3sc4c(c3C(=O)O)CC(C)(C)CC4)CC3CCCC3)cc2)NC(=O)OC2COC3(C)OCCC23)cc1` (stereo not drawn) [Compound I-456] gave a half-maximal inhibitory concentration (IC50) of 13.6 nM.

The compound `COc1ccc(S(=O)(=O)N(CC(C)C)CC(O)C(Cc2ccc(CN(C)Cc3cccc(-c4sc5c(c4C(=O)O)CC(C)(C)CC5)c3)cc2)NC(=O)OC2COC3(C)OCCC23)cc1` (stereo not drawn) [Compound I-266] registered a half-inhibitory concentration (IC50) of 2.61 nM.

The compound `COc1ccc(S(=O)(=O)N(CC(C)C)CC(O)C(Cc2ccc(OCc3ccccc3-c3sc(Oc4ccccc4)nc3C(=O)O)cc2)NC(=O)OC2COC3OCCC23)cc1` (stereo not drawn) [Compound I-843] returned a concentration for half-maximal inhibition (IC50) of 1.33 nM. Compared with the last compound, the IC50 is about 2-fold lower.

In turn, `COc1ccc(S(=O)(=O)N(CC(C)C)CC(O)C(Cc2ccc(NCc3ccc(-c4sc5c(c4C(=O)O)CC(C)(C)CC5)cn3)cc2)NC(=O)OC2COC3(C)OCCC23)cc1` (stereo not drawn) [Compound I-290] yielded a half-maximal inhibitory concentration (IC50) of 2.08 nM.

With `COc1ccc(S(=O)(=O)N(CC(C)C)CC(O)C(Cc2ccc(OC3CCCN(c4ccccc4-c4sc5c(c4C(=O)O)CC(C)(C)CC5)C3)cc2)NC(=O)OC2COC3(C)OCCC23)cc1` (stereo not drawn) [Compound I-100], the IC50 turned out to be 1.98 nM.

Regarding `COc1ccc(S(=O)(=O)N(CC(C)C)CC(O)C(Cc2ccc(NCc3cccc(-c4sc5c(c4C(=O)O)CC(C)(C)CC5)c3OCc3ccccc3)cc2)NC(=O)OC2COC3(C)OCCC23)cc1` (stereo not drawn) [Compound I-558], the IC50 worked out at 4.99 nM.

In turn, `COc1ccc(S(=O)(=O)N(CC(C)C)CC(O)C(Cc2ccc(OC3CCN(Cc4sc5c(c4C(=O)O)CC(C)(C)CC5)C3)cc2)NC(=O)OC2COC3(C)OCCC23)cc1` (stereo not drawn) [Compound I-184] returned a half-inhibitory concentration (IC50) of 1.64 nM.

Take `COc1ccc(S(=O)(=O)N(CC(C)C)CC(O)C(Cc2ccc(NCc3cc(Cl)ccc3-c3sc4c(c3C(=O)O)CC(C)(C)CC4)cc2)NC(=O)OC2COC3(C)OCCC23)cc1` (stereo not drawn) [Compound I-547]: the IC50 came out at 2.28 nM. This IC50 and that of the compound before are within 1.5-fold of each other.

For the compound `COc1ccc(S(=O)(=O)N(CC(C)C)CC(O)C(Cc2ccc(OCc3ccccc3-c3sccc3C(=O)O)cc2)NC(=O)OC2COC3(C)OCCC23)cc1` (stereo not drawn) [Compound I-97], the half-inhibitory concentration (IC50) turned out to be 0.82 nM.

For `COc1ccc(S(=O)(=O)N(CC(C)C)CC(O)C(Cc2ccc(N3CCN(c4ccc(-c5sc6c(c5C(=O)O)CC(C)(C)CC6)cc4)CC3)cc2)NC(=O)OC2COC3(C)OCCC23)cc1` (stereo not drawn) [Compound I-209], the half-inhibitory concentration (IC50) was 3.07 nM.

`COc1ccc(S(=O)(=O)N(CC(C)C)CC(O)C(Cc2ccc(N3CCC(c4sc5c(c4C(=O)O)CC(C)(C)CC5)CC3)cc2)NC(=O)OC2COC3(C)OCCC23)cc1` (stereo not drawn) [Compound I-227]: the IC50 came out at 3.26 nM.
